According to patent US20240158418A1 (C4 Therapeutics, Inc., priority 2021, published 2024):

target: T1, EGFR L858R-T790M (Homo sapiens, UniProt P00533, L858R/T790M); experiment: EGFR degradation, Total EGFR (L858R-specific) HTRF, NCI-H1975; assay type: cell-based; conditions: Table 9A; NCI-H1975 cells, 6 hours, Total EGFR HTRF; read-out: H1975 EGFR DC50
T1 construct: NCI-H1975 (harboring EGFR heterozygous L858R-T790M mutations); host or cells: NCI-H1975
How it was run: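 Cells in RPMI 1640 + 10% FBS treated 6 h at 37°C with compound, 11-point half-log titration from 10 μM top, in duplicate. pY1068 and total EGFR read by HTRF (pan-EGFR antibody for wild-type A431; L858R-specific for mutants); IC50 for phospho inhibition, DC50 for 50% degradation.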

T1 sequence (P00533 25-1210 T790M/L858R): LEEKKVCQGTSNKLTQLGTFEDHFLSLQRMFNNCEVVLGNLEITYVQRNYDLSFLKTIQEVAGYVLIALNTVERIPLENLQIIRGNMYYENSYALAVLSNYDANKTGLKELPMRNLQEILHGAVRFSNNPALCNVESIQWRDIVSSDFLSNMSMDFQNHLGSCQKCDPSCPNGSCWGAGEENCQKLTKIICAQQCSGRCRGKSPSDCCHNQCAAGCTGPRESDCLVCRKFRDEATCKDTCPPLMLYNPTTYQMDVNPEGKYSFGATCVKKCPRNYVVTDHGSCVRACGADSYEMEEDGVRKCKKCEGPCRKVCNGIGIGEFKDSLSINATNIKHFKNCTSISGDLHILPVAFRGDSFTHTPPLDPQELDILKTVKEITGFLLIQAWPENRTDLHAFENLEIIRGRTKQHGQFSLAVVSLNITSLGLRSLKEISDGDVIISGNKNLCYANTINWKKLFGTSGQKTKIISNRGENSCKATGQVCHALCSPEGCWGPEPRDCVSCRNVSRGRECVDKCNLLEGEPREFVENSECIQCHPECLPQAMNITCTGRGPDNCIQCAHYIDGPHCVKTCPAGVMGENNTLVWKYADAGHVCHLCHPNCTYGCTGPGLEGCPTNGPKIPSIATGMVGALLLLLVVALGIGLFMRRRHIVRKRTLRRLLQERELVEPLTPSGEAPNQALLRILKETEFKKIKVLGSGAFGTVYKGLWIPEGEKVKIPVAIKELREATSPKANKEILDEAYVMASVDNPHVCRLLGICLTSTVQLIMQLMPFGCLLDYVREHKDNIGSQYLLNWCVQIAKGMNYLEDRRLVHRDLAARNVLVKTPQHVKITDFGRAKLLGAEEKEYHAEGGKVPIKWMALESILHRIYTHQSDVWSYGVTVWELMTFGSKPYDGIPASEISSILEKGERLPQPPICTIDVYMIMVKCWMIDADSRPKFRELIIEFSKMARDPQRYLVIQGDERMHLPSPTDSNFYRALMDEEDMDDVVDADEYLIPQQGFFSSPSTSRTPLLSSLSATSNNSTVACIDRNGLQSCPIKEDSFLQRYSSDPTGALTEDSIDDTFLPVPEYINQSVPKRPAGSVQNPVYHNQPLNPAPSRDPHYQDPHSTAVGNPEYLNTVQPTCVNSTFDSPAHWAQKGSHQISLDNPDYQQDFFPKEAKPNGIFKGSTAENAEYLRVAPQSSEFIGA

DC50 | SMILES
50 to 150 nM | O=C1CCC(Nc2ccc(C3CCN(CC(=O)N4CCN(c5ccc(-c6ccc7cn(C(C(=O)Nc8nccs8)c8ncn9c8CCC9)nc7c6F)cn5)CC4)CC3)cc2)C(=O)N1 (racemic) [Compound 63, (2RS)-2-(6,7-Dihydro-5H-pyrrolo[1,2-c]imidazol-1-yl)-2-[7-fluoro-6-[6-[4-[2-[4-[4-[[(3RS)-2,6-dioxo-3-piperidyl]amino]phenyl]-1-piperidyl]acetyl]piperazin-1-yl]-3-pyridyl]indazol-2-yl]-N-thiazol-2-yl-acetamide]
50 to 150 nM | O=C1CC[C@H](Nc2ccc(C3CCN(CC(=O)N4CCC(Oc5ccc(-c6cc(F)c7c(c6)C(=O)N(C(C(=O)Nc6nccs6)c6ncn8c6CCC8)C7)cc5)CC4)CC3)c(F)c2)C(=O)N1 (stereo partly drawn) [Compound 39, 2-(6,7-dihydro-5H-pyrrolo[1,2-c]imidazol-1-yl)-2-(6-(4-((1-(2-(4-(4-(((S)-2,6-dioxopiperidin-3-yl)amino)-2-fluorophenyl)piperidin-1-yl)acetyl)piperidin-4-yl)oxy)phenyl)-4-fluoro-1-oxoisoindolin-2-yl)-N-(thiazol-2-yl)acetamide]
50 to 150 nM | O=C1CCC(Nc2ccc(C3CCN(CC(=O)N4CCN(c5ccc(-c6cc(F)c7cn(C(C(=O)Nc8nccs8)c8ncn9c8CCC9)nc7c6)cn5)CC4)CC3)c(F)c2)C(=O)N1 (stereo not drawn) [Compound 64, 2-(6,7-dihydro-5H-pyrrolo[1,2-c]imidazol-1-yl)-2-[6-[6-[4-[2-[4-[4-[(2,6-dioxo-3-piperidyl)amino]-2-fluoro-phenyl]-1-piperidyl]acetyl]piperazin-1-yl]-3-pyridyl]-4-fluoro-indazol-2-yl]-N-thiazol-2-yl-acetamide]
50 to 150 nM | O=C1NC(=O)C2(Nc3ccc(C4CCN(CC(=O)N5CCC(Oc6ccc(-c7cc(F)c8c(c7)C(=O)N(C(C(=O)Nc7nccs7)c7ncn9c7CCC9)C8)cc6)CC5)CC4)cc3)CC1C2 (stereo not drawn) [Compound 38, 2-(6,7-dihydro-5H-pyrrolo[1,2-c]imidazol-1-yl)-2-(6-(4-((1-(2-(4-(4-((2,4-dioxo-3-azabicyclo[3.1.1]heptan-1-yl)amino)phenyl)piperidin-1-yl)acetyl)piperidin-4-yl)oxy)phenyl)-4-fluoro-1-oxoisoindolin-2-yl)-N-(thiazol-2-yl)acetamide]

same assay, conditions: Table 9B; NCI-H1975 cells, 6 hours, Total EGFR HTRF; read-out: H1975 EGFR DC50

SMILES | DC50
Cn1nc(N2CCC(=O)NC2=O)c2cc(F)c(C3CCN(CC(=O)N4CC5(C4)CN(c4ccc(-c6cc(F)c7c(c6)C(=O)N(C(C(=O)Nc6nccs6)c6ncn8c6CCC8)C7)cc4)C5)CC3(F)F)cc21 (single isomer, unassigned; isomer 1) [Compound 129, 2-(6,7-dihydro-5H-pyrrolo[1,2-c]imidazol-1-yl)-2-[6-[4-[2-[2-[4-[3-(2,4-dioxohexahydropyrimidin-1-yl)-5-fluoro-1-methyl-indazol-6-yl]-3,3-difluoro-1-piperidyl]acetyl]-2,6-diazaspiro[3.3]heptan-6-yl]phenyl]-4-fluoro-1-oxo-isoindolin-2-yl]-N-thiazol-2-yl-acetamide, isomer 1] | < 50 nM
O=C1CC[C@H](Nc2ccc(C3CCN(C(=O)CC4CC5(C4)CN(c4ccc(-c6cc(F)c7c(c6)C(=O)N(C(C(=O)Nc6nccs6)c6ncn8c6CCC8)C7)cc4)C5)CC3)c(F)c2)C(=O)N1 (stereo partly drawn) [Compound 100, 2-(6,7-dihydro-5H-pyrrolo[1,2-c]imidazol-1-yl)-2-(6-(4-(6-(2-(4-(4-(((S)-2,6-dioxopiperidin-3-yl)amino)-2-fluorophenyl)piperidin-1-yl)-2-oxoethyl)-2-azaspiro[3.3]heptan-2-yl)phenyl)-4-fluoro-1-oxoisoindolin-2-yl)-N-(thiazol-2-yl)acetamide] | < 50 nM
O=C1CC[C@@H](Nc2ccc(N3CCC(O)(CC(=O)N4CC5(C4)CN(c4ccc(-c6cc(F)c7c(c6)C(=O)N(C(C(=O)Nc6nccs6)c6ncn8c6CCC8)C7)cn4)C5)CC3)c(F)c2)C(=O)N1 (stereo partly drawn) [Compound 111, 2-(6,7-dihydro-5H-pyrrolo[1,2-c]imidazol-1-yl)-2-(6-(6-(6-(2-(1-(4-(((R)-2,6-dioxopiperidin-3-yl)amino)-2-fluorophenyl)-4-hydroxypiperidin-4-yl)acetyl)-2,6-diazaspiro[3.3]heptan-2-yl)pyridin-3-yl)-4-fluoro-1-oxoisoindolin-2-yl)-N-(thiazol-2-yl)acetamide] | < 50 nM
Cn1nc(N2CCC(=O)NC2=O)c2ccc(C3CCN(C(=O)CN4CC5(C4)CN(c4ccc(-c6cc(F)c7c(c6)C(=O)N(C(C(=O)Nc6nccs6)c6ncn8c6CCC8)C7)cn4)C5)CC3(F)F)cc21 (stereo not drawn) [Compound 118, 2-(6,7-dihydro-5H-pyrrolo[1,2-c]imidazol-1-yl)-2-(6-(6-(6-(2-(4-(3-(2,4-dioxotetrahydropyrimidin-1(2H)-yl)-1-methyl-1H-indazol-6-yl)-3,3-difluoropiperidin-1-yl)-2-oxoethyl)-2,6-diazaspiro[3.3]heptan-2-yl)pyridin-3-yl)-4-fluoro-1-oxoisoindolin-2-yl)-N-(thiazol-2-yl)acetamide] | < 50 nM
Cn1nc(N2CCC(=O)NC2=O)c2ccc(C3CCN(CC(=O)N4CC5(C4)CN(c4ccc(-c6cc(F)c7c(c6)C(=O)N(C(C(=O)Nc6nccs6)c6ncn8c6C[C@@H](F)C8)C7)cc4)C5)CC3(F)F)cc21 (stereo partly drawn) [Compound 116, 2-[6-[4-[2-[2-[4-[3-(2,4-dioxohexahydropyrimidin-1-yl)-1-methyl-indazol-6-yl]-3,3-difluoro-1-piperidyl]acetyl]-2,6-diazaspiro[3.3]heptan-6-yl]phenyl]-4-fluoro-1-oxo-isoindolin-2-yl]-2-[(6R)-6-fluoro-6,7-dihydro-5H-pyrrolo[1,2-c]imidazol-1-yl]-N-thiazol-2-yl-acetamide] | < 50 nM
O=C1CCC(Nc2ccc(N3CCC(O)(CC(=O)N4CC5(CCN(c6ccc(-c7cc(F)c8c(c7)C(=O)N(C(C(=O)Nc7nccs7)c7ncn9c7CCC9)C8)cc6)CC5)C4)CC3)c(Cl)c2)C(=O)N1 (single isomer, unassigned; isomer 1) [Compound 128, 2-[6-[4-[2-[2-[1-[2-chloro-4-[[2,6-dioxo-3-piperidyl]amino]phenyl]-4-hydroxy-4-piperidyl]acetyl]-2,7-diazaspiro[3.5]nonan-7-yl]phenyl]-4-fluoro-1-oxo-isoindolin-2-yl]-2-(6,7-dihydro-5H-pyrrolo[1,2-c]imidazol-1-yl)-N-thiazol-2-yl-acetamide, isomer 1] | < 50 nM

Now from value to compound:

DC50 | SMILES
50 to 150 nM | O=C1CCC(Nc2ccc(N3CCCC(O)(CC(=O)N4CC5(C4)CN(c4ccc(-c6cc(F)c7c(c6)C(=O)N(C(C(=O)Nc6nccs6)c6ncn8c6CCC8)C7)cc4)C5)CC3)c(F)c2)C(=O)N1 (single isomer, unassigned; isomer b1) [Compound 166, 2-(6,7-dihydro-5H-pyrrolo[1,2-c]imidazol-1-yl)-2-[6-[4-[2-[2-[1-[4-[[2,6-dioxo-3-piperidyl]amino]-2-fluoro-phenyl]-4-hydroxy-azepan-4-yl]acetyl]-2,6-diazaspiro[3.3]heptan-6-yl]phenyl]-4-fluoro-1-oxo-isoindolin-2-yl]-N-thiazol-2-yl-acetamide, isomer B1]
< 50 nM | O=C1CCC(Nc2ccc(N3CCC(O)(CC(=O)N4CCC5(C4)CN(c4ccc(-c6cc(F)c7c(c6)C(=O)N(C(C(=O)Nc6nccs6)c6ncn8c6CCC8)C7)cc4)C5)CC3)c(F)c2)C(=O)N1 (stereo not drawn) [Compound 115, 2-(6,7-dihydro-5H-pyrrolo[1,2-c]imidazol-1-yl)-2-[6-[4-[7-[2-[1-[4-[(2,6-dioxo-3-piperidyl)amino]-2-fluoro-phenyl]-4-hydroxy-4-piperidyl]acetyl]-2,7-diazaspiro[3.4]octan-2-yl]phenyl]-4-fluoro-1-oxo-isoindolin-2-yl]-N-thiazol-2-yl-acetamide]
< 50 nM | O=C1CC[C@@H](Nc2ccc(N3CCC(O)(CC(=O)N4CC5(C4)CN(c4ccc(-c6cc(F)c7c(c6)C(=O)N(C(C(=O)Nc6nccs6)c6ncn8c6C[C@@H](F)C8)C7)cc4)C5)CC3)c(F)c2)C(=O)N1 (stereo partly drawn) [Compound 132, 2-[6-[4-[2-[2-[1-[4-[[(3R)-2,6-dioxo-3-piperidyl]amino]-2-fluoro-phenyl]-4-hydroxy-4-piperidyl]acetyl]-2,6-diazaspiro[3.3]heptan-6-yl]phenyl]-4-fluoro-1-oxo-isoindolin-2-yl]-2-[(6R)-6-fluoro-6,7-dihydro-5H-pyrrolo[1,2-c]imidazol-1-yl]-N-thiazol-2-yl-acetamide]
< 50 nM | O=C1CC[C@H](Nc2ccc(N3CCC(O)(CC(=O)N4CC5(C4)CN(c4ccc(-c6cc(F)c7c(c6)C(=O)N(C(C(=O)Nc6nccs6)c6ncn8c6CCC8)C7)cn4)C5)CC3)c(F)c2)C(=O)N1 (stereo partly drawn) [Compound 110, 2-(6,7-dihydro-5H-pyrrolo[1,2-c]imidazol-1-yl)-2-(6-(6-(6-(2-(1-(4-(((S)-2,6-dioxopiperidin-3-yl)amino)-2-fluorophenyl)-4-hydroxypiperidin-4-yl)acetyl)-2,6-diazaspiro[3.3]heptan-2-yl)pyridin-3-yl)-4-fluoro-1-oxoisoindolin-2-yl)-N-(thiazol-2-yl)acetamide]
< 50 nM | O=C1CCC(Nc2ccc(N3CCC(O)(CC(=O)N4CC5(C4)CN(c4ccc(-c6cc(F)c7c(c6)C(=O)N(C(C(=O)Nc6nccs6)c6ncn8c6CCC8)C7)cc4)C5)CC3)c(F)c2)C(=O)N1 (stereo not drawn) [Compound 89, 2-(6,7-dihydro-5H-pyrrolo[1,2-c]imidazol-1-yl)-2-(6-(4-(6-(2-(1-(4-((2,6-dioxopiperidin-3-yl)amino)-2-fluorophenyl)-4-hydroxypiperidin-4-yl)acetyl)-2,6-diazaspiro[3.3]heptan-2-yl)phenyl)-4-fluoro-1-oxoisoindolin-2-yl)-N-(thiazol-2-yl)acetamide]
